Source: patent US5591741A, “Fungicidal spiroheterocyclic derivatives” (American Cyanamid Company, priority 1993, dated 1997)

How the values were obtained:
[1] = tested on: Erysiphe graminis f.sp. hordei; assay: Activity against barley powdery mildew, direct therapeutic (EGT); assay type: in vivo; settings: direct therapeutic foliar spray, 600 ppm, up to 7 days
Method in brief: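 Barley seedlings (cv. Golden Promise, single-leaf stage) were dusted with mildew conidia one day before a therapeutic foliar spray of 600 ppm compound. Plants were kept at 18 °C and 40% humidity for up to 7 days, and sporulating leaf area was rated against untreated or diluent-sprayed controls.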

Plasmopara viticola = assay: Antisporulant activity against vine downy mildew (PVA); assay type: in vivo; settings: vine leaves, antisporulant foliar spray, 600 ppm, 750 l/ha
Method in brief: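 Cabernet Sauvignon vines (~8 cm) inoculated on lower leaf surfaces with 5×10^4 zoosporangia/ml, held 24 h at 21° C high humidity then 24 h glasshouse. Infected leaves sprayed underside with 600 ppm compound in 1:1 water/acetone, 0.04% Tween 20, 750 l/ha; 96 h glasshouse, 24 h humidity. Sporulating leaf area rated versus control.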

Leptosphaeria nodorum = assay: Activity against wheat leafspot (LN); assay type: in vivo; settings: direct therapeutic foliar spray, 600 ppm, 6-8 days
Method in brief: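 Wheat cv Norman at single-leaf stage spray-inoculated with 1.5×10^6 conidia/ml, held 24 h at high humidity, then sprayed therapeutically with test compound at 600 ppm. Kept 6-8 days at 22° C, 70% humidity; lesion density per leaf rated against untreated or diluent-sprayed controls.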

Phytophthora infestans = assay type: in vivo; settings: tomato, direct protectant foliar spray
Botrytis cinerea = assay: Direct protectant activity against broad bean grey mould (BCB); assay type: in vivo; settings: direct protectant foliar spray, 600 ppm, 4 days
Method in brief: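 Broad bean plants (cv The Sutton, two leaf pairs) sprayed on upper leaf surfaces at 600 ppm, then inoculated 24 h later with 10^6 conidia/ml. Kept 4 days at 22 °C, high humidity; disease control rated from % leaf area with lesions against untreated or diluent controls.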

Rhizoctonia solani = assay: Activity against Rhizoctonia in-vitro (RSI); assay type: cell-based; settings: 10 ppm, 10 days, 20° C., mycelial growth
Method in brief: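 R. solani mycelial fragments (5×10^4/ml) in half-strength Potato Dextrose Broth with compound added from acetone to 10 ppm final. Mycelial growth assessed after 10 days at 20° C, rated against untreated or diluent control.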

Pyricularia oryzae = assay type: in vivo; settings: rice seedlings, direct therapeutic foliar spray, 600 ppm, 4-5 days
[2] = tested on: Pseudocercosporella herpotrichoides; assay: Activity against wheat eyespot in-vitro (PHI); assay type: cell-based; settings: 10 ppm, 10 days, 20° C., mycelial growth
Method in brief: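 P. herpotrichoides mycelial fragments (5×10^4/ml) grown in half-strength PDB with compound at 10 ppm final, added from acetone. Incubated 10 days at 20 °C; mycelial growth rated against untreated or diluent controls.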

Venturia inaequalis = assay: Activity against apple scab in-vitro (VII); assay type: cell-based; settings: 10 ppm, 10 days, 20° C., mycelial growth
Method in brief: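 Compound in acetone was tested at 10 ppm final in half-strength Potato Dextrose Broth inoculated with V. inaequalis mycelial fragments and spores at 5×10^4 propagules/ml. After 10 days at 20° C, mycelial growth was rated against untreated or diluent controls.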

Alternaria solani = assay: Activity against tomato early blight (AS); assay type: in vivo; settings: Table VI; tomato seedlings, contact prophylactic foliar spray, 4 days
Method in brief: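 Foliar contact prophylactic spray on tomato seedlings (cv Outdoor Girl, second true leaf expanded) in acetone/water 50:50 with 0.04% Tween 20; 24 h at 20° C, 40% R.H., then inoculation with 10^4 spores/ml A. solani conidia. Kept moist at 21° C; lesion cover rated 4 days post-inoculation against untreated or diluent-sprayed controls.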

[3] = tested on: Erysiphe graminis f.sp. hordei; assay: Direct protectant activity against barley powdery mildew (EGP); assay type: in vivo; settings: direct protectant foliar spray, 8 days
Method in brief: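 Barley seedlings (cv Golden Promise, single-leaf stage) were foliar-sprayed, held 24 h at 18 °C/40% RH, then dusted with mildew conidia. After 8 days at 18 °C/40% RH, sporulating leaf area was scored as a rating against untreated or diluent-sprayed controls.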

Compound	disease control rating EGT [1]	disease control rating PVA (Plasmopara viticola)	disease control rating LN (Leptosphaeria nodorum)	disease control rating PIP (Phytophthora infestans)	disease control rating BCB (Botrytis cinerea)	disease control rating RSI (Rhizoctonia solani)	disease control rating PO (Pyricularia oryzae)	disease control rating PHI [2]	disease control rating VII (Venturia inaequalis)	disease control rating AS (Alternaria solani)	disease control rating EGP [3]
CCCCN(CCCC)C1COC2(CCC(C(C)(C)C)CC2)C1 (centres unmarked) [Compound 12]	2 (greater than 80% disease control)	0 (less than 50% disease control)	0 (less than 50% disease control)	0 (less than 50% disease control)	2 (greater than 80% disease control)	0 (less than 50% disease control)	0 (less than 50% disease control)	0 (less than 50% disease control)	2 (greater than 80% disease control)	0 (less than 50% disease control)	2 (greater than 80% disease control)
CCCN(CCC)C1COC2(CCC(C(C)(C)C)CC2)C1 (centres unmarked) [Compound 13]	2 (greater than 80% disease control)	0 (less than 50% disease control)	0 (less than 50% disease control)	0 (less than 50% disease control)	0 (less than 50% disease control)	0 (less than 50% disease control)	0 (less than 50% disease control)	0 (less than 50% disease control)	2 (greater than 80% disease control)	0 (less than 50% disease control)	2 (greater than 80% disease control)
CCCCCCN(C)C1COC2(CCC(C(C)(C)C)CC2)C1 (centres unmarked) [Compound 14]	2 (greater than 80% disease control)	0 (less than 50% disease control)	1 (about 50-80% disease control)	0 (less than 50% disease control)	0 (less than 50% disease control)	1 (about 50-80% disease control)	0 (less than 50% disease control)	2 (greater than 80% disease control)	2 (greater than 80% disease control)	0 (less than 50% disease control)	2 (greater than 80% disease control)
CC1CC(C)CN(C2COC3(CCC(C(C)(C)C)CC3)C2)C1 (centres unmarked) [Compound 15]	2 (greater than 80% disease control)	0 (less than 50% disease control)	0 (less than 50% disease control)	0 (less than 50% disease control)	0 (less than 50% disease control)	0 (less than 50% disease control)	0 (less than 50% disease control)	0 (less than 50% disease control)	2 (greater than 80% disease control)	0 (less than 50% disease control)	2 (greater than 80% disease control)
